Measurements: EP4782453A1 (Beyang Therapeutics Co., Ltd., priority 2023, dated 2025)
Read-outs that look alike come from different tables or passages of the source.

Legend:
Menin-MLL = molecular target: T1, Menin-MLL (Homo sapiens, UniProt O00255); experiment: Inhibitory activity against Menin-MLL binding (fluorescence polarization); conditions: 150 nM His-Menin, 15 nM FITC-MLL, 25°C for 60 min
T1 construct: His-Menin (M1-L615 end); purchased BIORTUS BP9210
T1 sequence (O00255 1-615 isoform O00255-1): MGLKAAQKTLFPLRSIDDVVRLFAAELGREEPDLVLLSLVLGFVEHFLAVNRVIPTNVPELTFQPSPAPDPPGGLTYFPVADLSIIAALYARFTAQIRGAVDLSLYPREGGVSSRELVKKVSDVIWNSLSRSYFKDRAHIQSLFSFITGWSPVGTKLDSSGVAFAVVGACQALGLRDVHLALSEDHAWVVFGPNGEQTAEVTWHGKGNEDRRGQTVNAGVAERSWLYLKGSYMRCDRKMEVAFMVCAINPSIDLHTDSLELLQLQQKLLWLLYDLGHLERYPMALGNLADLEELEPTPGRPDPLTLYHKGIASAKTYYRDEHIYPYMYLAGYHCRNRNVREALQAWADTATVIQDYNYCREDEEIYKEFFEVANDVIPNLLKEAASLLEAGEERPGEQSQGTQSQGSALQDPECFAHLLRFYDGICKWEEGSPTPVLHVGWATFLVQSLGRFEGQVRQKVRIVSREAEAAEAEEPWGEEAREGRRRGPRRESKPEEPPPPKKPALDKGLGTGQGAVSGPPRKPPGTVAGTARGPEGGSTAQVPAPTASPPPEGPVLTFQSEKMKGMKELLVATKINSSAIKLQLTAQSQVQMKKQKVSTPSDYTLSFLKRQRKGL
In short: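 His-Menin (M1-L615, 150 nM) preincubated with compound 15 min at 25 °C in HEPES pH 7.5, 50 mM NaCl, 1 mM DTT, 0.01% BSA, then 15 nM FITC-MLL4-43 peptide added for 60 min at 25 °C. Fluorescence polarization read; IC50 from 4-parameter logistic fit, duplicates.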

[1] = test system: MOLM-13 (carrying MLL-AF9); experiment: Inhibition of proliferation of human tumor cells (Alamar Blue, 7 days), MOLM-13; assay type: cell-based; conditions: Homo sapiens, MOLM-13 cells (carrying MLL-AF9), method calls the value GI50
Text: Experimental Example 2: Evaluation of Inhibitory Activity of Compounds Against Proliferation of Human Tumor Cells
• Human acute lymphoblastic leukemia cells MV-4-11, purchased from American Type Culture Collection, Catalog Number: CRL-9591; • Human acute myeloid leukemia cells MOLM-13, purchased from COBIOER BIOSCIENCES CO., LTD, Catalog Number: CBP60678; • Human acute myeloid leukemia cells KG-1a, purchased from American Type Culture Collection, Catalog Number: CCL-246.1; • Inverted Microscope, purchased from Olympus Tokyo; • Countess™ Automated Cell Counter, purchased from Invitrogen, Model: C10281; and • Multilabel Reader, purchased from Bio-Tek, Model: Synergy HT.
MV-4-11 cells were cultured in an IMDM medium containing 10% fetal bovine serum, KG-a cells were cultured in an IMDM medium containing 20% fetal bovine serum, or MOLM-13 cells were cultured in an RPMI-1640 medium containing 20% fetal bovine serum, each supplemented with 100 U·mL^-1 penicillin and 100 µg·mL^-1 streptomycin. These cells were cultured at 37°C with 5% CO2. The suspensions of individual cell lines were prepared in their respective media and seeded into 96-well plates at a density of 4,000 cells/well for MV-4-11 and MOLM-13 cells, or 3,000 cells/well for KG-1a cells. On the day of the experiment, a compound stock solution was diluted in a 3-fold or 4-fold gradient using DMSO. Each gradient-diluted stock solution was then further diluted 250-fold with a complete medium to prepare a series of working solutions at different concentrations. Subsequently, 100 µL of working solution (containing a 2-fold concentration series of the test compound) was added to each well, with duplicate wells set up for each concentration.
Seven days after compound addition (on Day 7), an Alamar Blue assay reagent (MCE, HY-111391 / CS-0040317) was added to measure the fluorescence intensity in each well. Wells containing the cells in the growth medium supplemented with 0.1% DMSO (Day 7) served as high-read control wells. The readouts from the wells containing the cells in the growth medium supplemented with 0.1% DMSO on the day of compound addition (Day 0) served as low-reading control well. GraphPad Prism software was used to calculate the concentration required to inhibit 50% of cell proliferation (GI50), which serves as a cell proliferation inhibition activity index.

[2] = fluorescence polarization, read-out: Menin-MLL IC50

IC50 (Menin-MLL; [2]) | IC50 ([1]; 168 h) | SMILES | IC50 (Menin-MLL; Menin-MLL IC50, fluorescence polarization) | IC50 ([1]; MOLM-13, 168 h)
6 nM | 66 nM | CCN1CCN(CCC[C@H](C(C)C)N2CC(c3cc(-c4ccc(F)cc4C(=O)N4CCOC[C@H]4C)c4cnn(C)c4c3)C2)CC1 [Example 359] | – | –
8.5 nM | 14 nM | Cc1nc(F)c2c(-c3ccc(F)cc3C(=O)N3CCOC[C@H]3C)cc(C3CN([C@H](CCCN4CCN(S(C)(=O)=O)CC4)C(C)C)C3)cn12 [Example 365] | – | –
20 nM | 68 nM | CCN(C(=O)c1cc(F)ccc1-c1cc(C2CN(C(CC3COCCO3)C(C)C)C2)cn2c(C)ncc12)C(C)C (stereo not drawn) [Example 445, 2-(6-{1-[1-(1,4-dioxane-2-yl)-3-methylbutan-2-yl]azacyclobutan-3-yl}-3-methylimidazo[1,5-a]pyridin-8-yl)-N-ethyl-5-fluoro-N-(isopropyl)benzamide] | – | –
– | – | CCN(C(=O)c1cc(F)ccc1-c1cc(C2CN([C@H](CN3CCN(C[C@H](O)CO)CC3)C(C)C)C2)cc2c1cnn2C)C(C)C [Example 440] | 8.9 nM | 56 nM
4 nM | 31 nM | CCN(C(=O)c1cc(F)ccc1-c1cc(C2CN([C@H](CCCN3CC4(C3)CN(C(C)=O)C4)C(C)C)C2)cc2c1cnn2C)C(C)C [Example 409] | – | –
5.2 nM | 21 nM | CCN(C(=O)c1cc(F)ccc1-c1cc(C2CN([C@H](CCCN3CCO[C@H](CO)C3)C(C)C)C2)cn2c(C)ncc12)C(C)C [Example 450] | – | –
1.5 nM | 24 nM | CCN(C(=O)c1cc(F)ccc1-c1cc(C2CN([C@H](CCCN3CCNCC3)C(C)C)C2)cn2c(C)ncc12)C(C)C [Example 472] | – | –
3.7 nM | 12 nM | CCN(C(=O)c1cc(F)ccc1-c1cc(C2CN([C@H](CCCN3CCN(CCO)CC3)C(C)C)C2)cc2c1cnn2C)C(C)C [Example 400-2] | – | –
5.3 nM | 22 nM | CCN(C(=O)c1cc(F)ccc1-c1cc(C2CN([C@H](CCCN3CCOC[C@H]3CO)C(C)C)C2)cn2c(C)ncc12)C(C)C [Example 453] | – | –
1.1 nM | 11 nM | CCN(C(=O)c1cc(F)ccc1-c1cc(C2CN(C(CCCN3CCN(C)C(COC)C3)C(C)C)C2)cn2c(C)ncc12)C(C)C (stereo not drawn) [Example 508] | – | –
2 nM | 1.7 nM | CCN1CCN(CCC[C@H](C(C)C)N2CC(c3cc(-c4ccc(F)cc4C(=O)N(CC)C(C)C)c4cnc(C)n4c3)C2)CC1 [Example 377] | – | –
6.4 nM | 31 nM | CCN(C(=O)c1cc(F)ccc1-c1cc(C2CN(C(CC[C@@H]3COCCN3)C(C)C)C2)cc2c1cnn2C)C(C)C (stereo partly drawn) [Example 458, N-ethyl-5-fluoro-2-[1-methyl-6-(1-{4-methyl-1-[(3R)-morpholin-3-yl]pentan-3-yl}azacyclobutan-3-yl}-1H-indazol-4-yl)-N-(isopropyl)benzamide] | – | –
3.8 nM | 3 nM | Cc1nc(F)c2c(-c3ccc(F)cc3C(=O)N3CCOC[C@H]3C)cc(C3CN([C@H](CCCN4CC5(COC5)C4)C(C)C)C3)cn12 [Example 369] | – | –
8.3 nM | 42 nM | Cc1ncc2c(-c3ccc(F)cc3C(=O)N(C)C(C)C)cc(C3CN(C(CCCN4CCN(C)CC4)C(C)C)C3)cn12 (stereo not drawn) [Example 436, 5-fluoro-N-methyl-2-(3-methyl-6-{1-[2-methyl-6-(4-methylpiperazin-1-yl)hexan-3-yl]azacyclobutan-3-yl}imidazo[1,5-a]pyridin-8-yl)-N-(isopropyl)benzamide] | – | –
5.3 nM | 39 nM | CCN(C(=O)c1cc(F)ccc1-c1cc(C2CN([C@H](CCCN3CCOC[C@@H]3CO)C(C)C)C2)cn2c(C)ncc12)C(C)C [Example 452] | – | –
3.7 nM | 52 nM | CCN(C(=O)c1cc(F)ccc1-c1cc(C2CN([C@H](CN3CCN(C[C@H](O)CO)CC3)C(C)C)C2)cn2c(C)ncc12)C(C)C [Example 428] | – | –
3.3 nM | 18 nM | CCN(C(=O)c1cc(F)ccc1-c1cc(C2CN([C@H](CCCN3CCN(C(CO)CO)CC3)C(C)C)C2)cc2c1cnn2C)C(C)C [Example 433, 2-(6-{1-[(3R)-6-[4-(1,3-dihydroxylpropan-2-yl)piperazin-1-yl]-2-methylhexan-3-yl]azacyclobutan-3-yl}-1-methyl-1H-indazol-4-yl)N-ethyl-5-fluoro-N-(isopropyl)benzamide] | – | –
2.7 nM | 4.1 nM | Cc1nc(F)c2c(-c3ccc(F)cc3C(=O)N3CCOC[C@H]3C)cc(C3CN([C@H](CCCN4C5CC4CN(C)C5)C(C)C)C3)cn12 [Example 384] | – | –
4.7 nM | 25 nM | CCN(C(=O)c1cc(F)ccc1-c1cc(C2CN([C@H](CCCN3CCO[C@@H](CO)C3)C(C)C)C2)cn2c(C)ncc12)C(C)C [Example 451] | – | –
0.9 nM | 3.8 nM | CCN(C(=O)c1cc(F)ccc1-c1cc(CC2CN([C@H](CCCN3CCN(CCO)CC3)C(C)C)C2)n2c(C)cncc12)C(C)C [Example 470, N-ethyl-5-fluoro-2-[6-({1-[(3R)-6-[4-(2-hydroxylethyl)piperazin-1-yl]-2-methylhexan-3-yl]azacyclobutan-3-yl}methyl)-4-methylpyrrolo[1,2-a]pyrazin-8-yl]-N-(isopropyl)benzamide] | – | –
2 nM | 5.9 nM | CCN(C(=O)c1cc(F)ccc1-c1cc(C2CN([C@H](CCCN3CCN(CCC#N)CC3)C(C)C)C2)cn2c(C)ncc12)C(C)C [Example 489] | – | –
3.3 nM | 25 nM | CCN(C(=O)c1cc(F)ccc1-c1cc(C2CN([C@H](CCCN3CCC(OC)CC3)C(C)C)C2)cc2c1cnn2C)C(C)C [Example 399-2, N-ethyl-5-fluoro-2-(6-{1-[(3R)-6-(4-methoxypiperidin-1-yl)-2-methylhexan-3-yl]azacyclobutan-3-yl}-1-methyl-1H-indazol-4-yl)-N-(isopropyl)benzamide] | – | –
5.2 nM | 3.3 nM | Cc1nc(F)c2c(-c3ccc(F)cc3C(=O)N3CCOC[C@H]3C)cc(C3CN([C@H](CCCN4CCN(CCF)CC4)C(C)C)C3)cn12 [Example 361] | – | –
6.8 nM | 39 nM | CCN(C(=O)c1cc(F)ccc1-c1cc(C2CN([C@H](CCCN3CCN(C[C@H](O)CO)CC3)C(C)C)C2)cc2c1cnn2C)C(C)C [Example 412] | – | –
11 nM | 75 nM | CCN(C(=O)c1cc(F)ccc1-c1cc(C2CN([C@H](CN3CCS(=O)(=O)CC3)C(C)C)C2)cn2c(C)ncc12)C(C)C [Example 441-1, 2-(6-{1-[(2S)-1-(1,1-dioxo-thiomorpholin-4-yl)-3-methylbutan-2-yl]azacyclobutan-3-yl}-3-methylimidazo[1,5-a]pyridin-8-yl)-N-ethyl-5-fluoro-N-(isopropyl)benzamide] | – | –
9.4 nM | 69 nM | CCN(C(=O)c1cc(F)ccc1-c1cc(C2CN(C(CCO)C(C)C)C2)cn2c(C)ncc12)C(C)C (stereo not drawn) [Example 455, N-ethyl-5-fluoro-2-{6-[1-(1-hydroxyl-4-methylpentan-3-yl)azacyclobutan-3-yl]-3-methylimidazo[1,5-a]pyridin-8-yl}-N-(isopropyl)benzamide] | – | –

SMILES | IC50 (Menin-MLL; [2]) | IC50 ([1]; 168 h) | IC50 (Menin-MLL; Menin-MLL IC50, fluorescence polarization) | IC50 ([1]; MOLM-13, 168 h)
CCN(C(=O)c1cc(F)ccc1-c1cc(C2CN([C@H](CCCN3C4COCC3C4)C(C)C)C2)cc2c1cnn2C)C(C)C [Example 426] | 3.2 nM | 30 nM | – | –
